# Read-outs that look alike come from different tables or passages of the source. Marks after values point to notes of the source that are not given here.
# Tests used:
# A. baumannii A401 = experiment: MIC without and with sub-inhibitory polymyxin B (Example 4); assay type: cell-based, Acinetobacter baumannii; settings: for MIC +0.06 μg/ml PB: +0.06 μg/ml polymyxin B; for MIC: Acinetobacter baumannii, A401, A baumannii A 401, without polymyxin B, read-out: MIC without PB
# [1] = tested on: Acinetobacter sp. (H064200250); experiment: Preliminary MBC without and with sub-inhibitory polymyxin B (Example 4); assay type: cell-based; settings: preliminary MBC; for MBC +[…] PB: +[…] polymyxin B; for MBC: Acinetobacter, without polymyxin B, read-out: MBC without PB
# Method in brief: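 Incubation 18-20 h, 37° C. MBC = lowest conc. with ~90% fewer colonies than positive control (single/no colonies).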
# A. baumannii A390 = experiment: as above; assay type: cell-based, Acinetobacter baumannii; settings: preliminary MBC; for MBC: Acinetobacter baumannii, A390, A. baumannii A390, without polymyxin B, read-out: MBC without PB
# [2] = tested on: Acinetobacter sp. (H064200250); experiment: MIC without and with sub-inhibitory polymyxin B (Example 4); assay type: cell-based; settings: for MIC +[…] PB: +[…] polymyxin B; for MIC without PB/MIC + PB: ratio; for MIC: Acinetobacter, without polymyxin B, read-out: MIC without PB
# A. baumannii A 401 = experiment: MIC determination for Acinetobacter strains (Example 3); assay type: cell-based; settings: A401, LEV R, CIP R, AMK R, TET R
# A. baumannii A489 = experiment: Preliminary MBC without and with sub-inhibitory polymyxin B (Example 4); assay type: cell-based, Acinetobacter baumannii; settings: for MBC +[…] PB: A. baumannii A489, +[…] polymyxin B; for MBC: Acinetobacter baumannii, A489, A. baumannii A489, without polymyxin B, read-out: MBC without PB
# A. baumannii A472 = experiment: MIC without and with sub-inhibitory polymyxin B (Example 4); assay type: cell-based, Acinetobacter baumannii; settings: for MIC +[…] PB: +[…] polymyxin B; for MIC: Acinetobacter baumannii, A472, A. baumannii A472, without polymyxin B, read-out: MIC without PB
# A. baumannii J2 [3] = experiment: Preliminary MBC without and with sub-inhibitory polymyxin B (Example 4); assay type: cell-based, Acinetobacter baumannii; settings: preliminary MBC; for MBC +[…] PB: A. baumannii J2, +[…] polymyxin B; for MBC: Acinetobacter baumannii, J2, A. baumannii J2, without polymyxin B, read-out: MBC without PB
# A. baumannii ATCC 19606 = experiment: MIC without and with sub-inhibitory polymyxin B (Example 4); assay type: cell-based, Acinetobacter baumannii; settings: for MIC +0.06 μg/ml PB / MIC without PB/MIC + PB: A. baumannii ATCC 19606; for MIC +0.06 μg/ml PB: +0.06 μg/ml polymyxin B; for MIC without PB/MIC + PB: ratio, PB 0.06 μg/ml; for MIC: Acinetobacter baumannii, ATCC19606, A. baumannii ATCC 19606, without polymyxin B
# A. baumannii J2 [4] = experiment: as above; assay type: cell-based, Acinetobacter baumannii; settings: A. baumannii J2, +[…] polymyxin B
# [5] = Acinetobacter spp. H064200250 (OXA51), 2nd experiment
# [6] = Acinetobacter spp. H064200250, 1st experiment
# [7] = Acinetobacter spp. H064200250 (OXA51), 2nd experiment, visual reading
smiles,measurement,setting,value
"C[C@@H](O)[C@H]1C(=O)N2C(C(=O)O)=C(SCCN=CN)C[C@H]12 [Imipenem, reference compound]",MIC +0.06 μg/ml PB,"A. baumannii A401; A baumannii A 401, 1st experiment",8 µg/mL
same,MIC +0.06 μg/ml PB,"A. baumannii A401; A baumannii A 401, 2nd experiment, visual reading",4 µg/mL
same,MIC ratio without/with polymyxin B,"A. baumannii A401; A baumannii A 401, ratio MIC without PB to MIC + PB, PB 0.06 μg/ml, 2nd experiment",8 µg/mL
same,MIC without PB/MIC + PB,"A. baumannii A401; A baumannii A 401, ratio, PB 0.06 μg/ml, 1st experiment",4
same,MIC,A. baumannii A401; 1st experiment,32 µg/mL
same,MIC,"A. baumannii A401; 2nd experiment, visual reading",32 µg/mL
same,MBC +[…] PB,[1]; [5],0.5 µg/mL
same,MBC +[…] PB,[1]; [6],2 (0.5)* μg/ml
same,MBC,[1]; [5],8 µg/mL
same,MBC,[1]; [6],16 µg/mL
same,MBC +0.06 μg/ml PB,"A. baumannii A390; A. baumannii A390, +0.06 μg/ml polymyxin B, 2nd experiment",4 µg/mL
same,MBC,A. baumannii A390; 2nd experiment,16 µg/mL
same,MBC,A. baumannii A390; 1st experiment,16 µg/mL
same,MIC +[…] PB,[2]; [7],0.5 µg/mL
same,MIC without PB/MIC + PB,[2]; [5],16
same,MIC +[…] PB,[2]; [6],0.5 µg/mL
same,MIC without PB/MIC + PB,[2]; [6],32
same,MIC,[2]; [7],8 µg/mL
same,MIC,[2]; [6],16 µg/mL
same,MIC,A. baumannii A 401,32 µg/mL
same,MBC +[…] PB,A. baumannii A489; 1st experiment,2 µg/mL
same,MBC +[…] PB,A. baumannii A489; 2nd experiment,0.25 µg/mL
same,MBC,A. baumannii A489; 1st experiment,64 µg/mL
same,MBC,A. baumannii A489; 2nd experiment,64 µg/mL
same,MIC +[…] PB,"A. baumannii A472; A. baumannii A472, 1st experiment",0.25 µg/mL
same,MIC +[…] PB,"A. baumannii A472; A. baumannii A472, 2nd experiment, visual reading",0.25 µg/mL
same,MIC ratio without/with polymyxin B,"A. baumannii A472; A. baumannii A472, ratio MIC without PB to MIC + PB, PB […], 2nd experiment",32 µg/mL
same,MIC without PB/MIC + PB,"A. baumannii A472; A. baumannii A472, ratio, PB […], 1st experiment",64
same,MIC,A. baumannii A472; 1st experiment,16 µg/mL
same,MIC,"A. baumannii A472; 2nd experiment, visual reading",8 µg/mL
same,MBC +[…] PB,A. baumannii J2 [3]; 2nd experiment,≤0.125 µg/mL
same,MBC +[…] PB,A. baumannii J2 [3]; 1st experiment,≤0.125 µg/mL
same,MBC,A. baumannii J2 [3]; 2nd experiment,8 µg/mL
same,MBC,A. baumannii J2 [3]; 1st experiment,4 µg/mL
same,MIC +0.06 μg/ml PB,A. baumannii ATCC 19606; 1st experiment,1 µg/mL
same,MIC +0.06 μg/ml PB,"A. baumannii ATCC 19606; 2nd experiment, visual reading",1 µg/mL
same,MIC without PB/MIC + PB,A. baumannii ATCC 19606; 1st experiment,2
same,MIC without PB/MIC + PB,A. baumannii ATCC 19606; 2nd experiment,1
same,MIC,"A. baumannii ATCC 19606; 1st experiment, read-out: MIC without PB",2 µg/mL
same,MIC,"A. baumannii ATCC 19606; 2nd experiment, second reading marked *, mark not explained, read-out: MIC without PB, value in parentheses marked *",4 µg/mL
same,MIC,"A. baumannii ATCC 19606; 2nd experiment, visual reading, read-out: MIC without PB",1 µg/mL
same,MIC +[…] PB,A. baumannii J2 [4]; 1st experiment,≤0.125 µg/mL
same,MIC +[…] PB,"A. baumannii J2 [4]; 2nd experiment, visual reading",≤0.125 µg/mL
